According to ChEMBL document CHEMBL1201862, “PubChem BioAssay data set” (2004):
The source made the active and inactive calls.

What was measured:
[1] = Trypanosoma cruzi growth suppression in host cells – NIH3T3 host cells, beta-gal luminescence, confirmation (AID 2044); format: functional, cell-based;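 also: intracellular parasites grown in NIH/3T3 mouse fibroblasts as host cells; luminescent beta-galactosidase reporter signal from transgenic T. cruzi replicating inside host cells; inhibitors lower the luminescence signal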
[2] = target: T1, Kappa-type opioid receptor (Homo sapiens, UniProt P41145); format: functional
[3] = target: T2, Delta-type opioid receptor (Homo sapiens, UniProt P41143); experiment: HTS Image-Based Screen for Antagonists of the DOR Receptor. [Related pubchem assays (depositor defined):AID1777, AID1785, AID1786, AID2133]; format: functional
[4] = target: T3, Beta-galactosidase (Escherichia coli, UniProt Q8VNN2); experiment: detection-enzyme interference by beta-gal modulators – biochemical, E. coli enzyme, set 3, artefact control for CCR6 antagonist project, dose response (AID 504712); format: functional
[5] = target: T3, Beta-galactosidase; format: functional
[6] = target: T2, Delta-type opioid receptor; experiment: HTS Image-Based Screen for Agonists of the DOR Receptor. [Related pubchem assays (depositor defined):AID1777, AID1786, AID2133]; format: functional
[7] = target: Mu-type opioid receptor (Homo sapiens, UniProt P35372); experiment: HTS Image-Based Screen for Agonists of the MOR Receptor. [Related pubchem assays (depositor defined):AID1777, AID1785, AID1786, AID2133]; format: functional;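 also: imaging of beta-arrestin GFP recruitment into spots after receptor activation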
[8] = NIH3T3 cell viability loss – ATP luminescence, mouse fibroblasts, counter-screen, dose response (AID 2010); format: functional, cell-based;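 also: cells exposed to compound for about 90 hours before reading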
[9] = target: Cytochrome P450 2C9 (Homo sapiens, UniProt P11712)
[10] = target: T1, Kappa-type opioid receptor; format: functional; remark: listed apart in the source
[11] = target: Cytochrome P450 2C19 (Homo sapiens, UniProt P33261); experiment: Cytochrome panel assay with activity outcomes. Panel member name: p450-cyp2c19 Compounds with AC50 equal or less than 10 uM are considered active; format: functional; details: read-out: AC50
[12] = target: T4, C-C chemokine receptor type 6 (Homo sapiens, UniProt P51684); experiment: antagonism of CCR6 beta-arrestin recruitment – cell-based, luminescent beta-arrestin readout, dose response (AID 504728); format: functional
T4 sequence (P51684 whole entry): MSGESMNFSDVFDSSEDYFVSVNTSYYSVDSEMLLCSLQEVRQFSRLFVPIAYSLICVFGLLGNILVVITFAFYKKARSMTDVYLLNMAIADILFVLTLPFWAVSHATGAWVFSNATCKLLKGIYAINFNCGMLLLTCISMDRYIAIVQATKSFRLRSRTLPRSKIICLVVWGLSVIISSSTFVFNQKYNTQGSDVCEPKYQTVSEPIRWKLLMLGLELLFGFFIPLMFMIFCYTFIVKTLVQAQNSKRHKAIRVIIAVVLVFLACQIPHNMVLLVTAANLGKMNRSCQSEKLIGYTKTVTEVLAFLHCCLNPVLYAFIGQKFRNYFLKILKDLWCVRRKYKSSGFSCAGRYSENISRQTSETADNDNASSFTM

[13] = Counterscreen for AddAB inhibitors: absorbance-based bacterial cell-based high throughput dose response assay for inhibitors of bacterial viability. [Related pubchem assays (depositor defined):AID435030, AID449728, AID449731, AID488942, AID488955, AID488956]; format: functional
[14] = target: Exodeoxyribonuclease V (Escherichia coli (strain K12), UniProt P04993+P07648+P08394); experiment: RecBCD inhibition via phage-restricted bacterial growth – absorbance, V66 E. coli, mutant T4 phage, counter-screen for AddAB inhibitor project, dose response (AID 492957); format: functional, cell-based, Escherichia coli str. K-12 substr. MG1655
[15] = target: Heat shock protein HSP 90-alpha (Homo sapiens, UniProt P07900); format: functional, organism-based
[16] = target: T5, Type-1 angiotensin II receptor (Homo sapiens, UniProt P30556); experiment: antagonism of angiotensin II type 1 receptor – cell-based, uHTS hits, selectivity assay for APJ receptor antagonist project, dose response (AID 463214); format: functional;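 also: antagonist potency against angiotensin II stimulated AT1 response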
T5 sequence (P30556 whole entry): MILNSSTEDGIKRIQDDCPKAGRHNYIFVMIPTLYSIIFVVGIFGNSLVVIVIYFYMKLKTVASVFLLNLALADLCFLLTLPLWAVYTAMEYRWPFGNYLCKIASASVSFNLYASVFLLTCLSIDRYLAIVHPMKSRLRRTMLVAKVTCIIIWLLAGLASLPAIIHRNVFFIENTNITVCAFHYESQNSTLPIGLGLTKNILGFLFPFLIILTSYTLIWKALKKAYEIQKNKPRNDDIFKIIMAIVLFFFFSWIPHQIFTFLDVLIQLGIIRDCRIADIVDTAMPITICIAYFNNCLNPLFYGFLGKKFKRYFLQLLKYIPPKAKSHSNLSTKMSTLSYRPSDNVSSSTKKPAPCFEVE

[17] = target: Intestinal-type alkaline phosphatase (Homo sapiens, UniProt P09923); experiment: inhibition of human intestinal alkaline phosphatase – biochemical, dose response (AID 488876); format: functional
[18] = target: T6, Alkaline phosphatase, tissue-nonspecific isozyme (Homo sapiens, UniProt P05186); experiment: TNAP enzyme inhibition by screening hits, dose response, selectivity assay for mouse IAP inhibitor project, biochemical, human TNAP, uHTS hits (AID 488906); format: functional
T6 sequence (P05186 whole entry): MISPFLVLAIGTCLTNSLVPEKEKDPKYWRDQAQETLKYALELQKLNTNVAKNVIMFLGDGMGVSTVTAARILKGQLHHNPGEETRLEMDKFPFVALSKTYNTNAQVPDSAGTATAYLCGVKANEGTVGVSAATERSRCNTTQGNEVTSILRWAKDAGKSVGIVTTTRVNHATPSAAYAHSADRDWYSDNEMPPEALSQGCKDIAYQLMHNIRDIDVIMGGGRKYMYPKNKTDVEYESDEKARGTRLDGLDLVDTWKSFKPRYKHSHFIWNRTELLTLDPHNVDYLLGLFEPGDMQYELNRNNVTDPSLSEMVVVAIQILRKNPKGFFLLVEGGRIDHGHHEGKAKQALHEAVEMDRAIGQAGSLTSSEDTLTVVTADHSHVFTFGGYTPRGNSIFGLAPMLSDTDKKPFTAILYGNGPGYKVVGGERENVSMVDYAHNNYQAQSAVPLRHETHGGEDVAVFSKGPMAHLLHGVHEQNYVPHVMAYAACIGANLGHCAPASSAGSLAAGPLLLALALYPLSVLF

[19] = target: T3, Beta-galactosidase; experiment: PubChem AID 485352; format: functional
[20] = target: Intestinal-type alkaline phosphatase (Mus musculus, UniProt P24822); experiment: PubChem AID 488785; format: functional
[21] = target: T7, Long-chain-fatty-acid--AMP ligase FadD28 (Mycobacterium tuberculosis, UniProt P9WQ59); experiment: Fluorescence polarization aasay to screen for inhibitors that compete for the binding of FadD28 to a bisubstrate Measured in Biochemical System Using Plate Reader - 2147-01_Inhibitor_Dose_CherryPick_Activity.; format: functional, Mycobacterium tuberculosis H37Rv
T7 sequence (P9WQ59 whole entry): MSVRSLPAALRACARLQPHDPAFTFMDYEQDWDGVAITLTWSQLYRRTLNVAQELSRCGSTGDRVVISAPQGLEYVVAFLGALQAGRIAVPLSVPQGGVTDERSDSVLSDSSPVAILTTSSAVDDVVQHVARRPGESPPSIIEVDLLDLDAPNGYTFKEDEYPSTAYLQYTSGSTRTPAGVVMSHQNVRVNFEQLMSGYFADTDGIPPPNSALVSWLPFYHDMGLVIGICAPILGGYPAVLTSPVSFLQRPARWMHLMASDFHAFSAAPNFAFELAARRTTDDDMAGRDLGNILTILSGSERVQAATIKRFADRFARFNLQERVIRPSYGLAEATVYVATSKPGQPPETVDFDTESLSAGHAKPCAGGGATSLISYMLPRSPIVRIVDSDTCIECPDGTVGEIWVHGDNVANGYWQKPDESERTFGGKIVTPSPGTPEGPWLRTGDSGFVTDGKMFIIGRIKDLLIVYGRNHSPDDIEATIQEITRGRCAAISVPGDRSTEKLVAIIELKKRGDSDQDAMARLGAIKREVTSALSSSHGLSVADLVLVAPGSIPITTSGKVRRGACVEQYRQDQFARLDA

[22] = test system: HEK293; experiment: inhibition of NOD1-driven NF-kB reporter – cell-based, luminescence, uHTS, primary screen (AID 1578); format: functional; details: Homo sapiens
[23] = fluconazole-exposed Candida albicans growth modulators – fluorescence, retest, confirmation (AID 2467); format: functional, cell-based
[24] = target: Nucleotide-binding oligomerization domain-containing protein 2 (Homo sapiens, UniProt Q9HC29); experiment: inhibition of NOD2-driven NF-kB reporter – cell-based, luminescence, uHTS, HEK293 (AID 1566); format: functional
[25] = reduction of Shn3 3'UTR-driven luciferase in osteoblasts – cell-based, Clone20 osteoblasts, firefly luciferase, cherry-picked, dose response (AID 624132); format: functional;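 also: firefly luciferase luminescence from reporter carrying the Shn3 3'UTR in osteoblasts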
[26] = NIH-3T3 fibroblast cytotoxicity, dose response, cytotoxicity control, cell-based, fluorescence, Alamar Blue, secondary assay (AID 2327); format: functional;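 also: NIH-3T3 mouse fibroblasts cultured with fluconazole at 8 µg/mL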
[27] = test system: HEK293; experiment: NOD2 signaling inhibitors in MDP-stimulated cells, cell-based, uHTS, luminescence (AID 2001); format: functional; details: Homo sapiens
[28] = target: T8, Heat shock factor protein 1 (Mus musculus, UniProt P38532); experiment: enhancement of HSF1-driven luciferase signal – cell-based, NIH3T3, luminescence, dose retest, confirmation (AID 435004); format: functional;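 also: stress induced by proteasome inhibitor MG132 added 30 min after compound; luciferase reporter driven by HSF1 response element in NIH3T3 cells; actives raise luminescence as potentiators of the MG132 stress response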
T8 sequence (P38532 whole entry): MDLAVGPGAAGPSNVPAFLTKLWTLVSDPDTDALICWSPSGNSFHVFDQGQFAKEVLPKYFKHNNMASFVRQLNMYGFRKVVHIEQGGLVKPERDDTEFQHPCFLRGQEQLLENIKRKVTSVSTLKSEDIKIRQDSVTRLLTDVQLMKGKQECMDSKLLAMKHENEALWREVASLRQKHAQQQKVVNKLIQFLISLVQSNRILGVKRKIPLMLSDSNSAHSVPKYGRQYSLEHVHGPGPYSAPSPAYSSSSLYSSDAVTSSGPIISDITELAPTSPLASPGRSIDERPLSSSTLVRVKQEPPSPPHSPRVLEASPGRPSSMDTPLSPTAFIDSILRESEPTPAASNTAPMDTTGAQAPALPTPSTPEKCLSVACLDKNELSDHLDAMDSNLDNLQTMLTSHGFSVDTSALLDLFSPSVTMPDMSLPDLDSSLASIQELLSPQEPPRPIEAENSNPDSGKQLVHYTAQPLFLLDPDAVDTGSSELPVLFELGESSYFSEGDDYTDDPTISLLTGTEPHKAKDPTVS

[29] = test system: HEK293; experiment: cells; format: functional, cell-based; details: Homo sapiens
[30] = loss of viability in HepG2 cells – cell-based, CellTiter-Glo, cherry-picked, cytotoxicity control for Shn3 inhibitor project, dose response (AID 624134); format: functional
[31] = test system: HEK293; experiment: cells; format: functional, cell-based; details: Homo sapiens; remark: listed apart in the source
[32] = non-specific 3'UTR reporter inhibition in Clone20-Shn3RL – cell-based, Renilla luciferase, cherry-picked, counter-screen for Shn3 inhibitor project, dose response (AID 624133); format: functional
[33] = general cell-killing toxicity readout – plate reader, dry powder samples, cytotoxicity control for PAX8 inhibitor project, dose response (AID 743021); format: functional, cell-based
[34] = test system: HEK293; experiment: cells; format: functional, cell-based; details: Homo sapiens; remark: listed apart in the source

T3 sequence (Q8VNN2 whole entry): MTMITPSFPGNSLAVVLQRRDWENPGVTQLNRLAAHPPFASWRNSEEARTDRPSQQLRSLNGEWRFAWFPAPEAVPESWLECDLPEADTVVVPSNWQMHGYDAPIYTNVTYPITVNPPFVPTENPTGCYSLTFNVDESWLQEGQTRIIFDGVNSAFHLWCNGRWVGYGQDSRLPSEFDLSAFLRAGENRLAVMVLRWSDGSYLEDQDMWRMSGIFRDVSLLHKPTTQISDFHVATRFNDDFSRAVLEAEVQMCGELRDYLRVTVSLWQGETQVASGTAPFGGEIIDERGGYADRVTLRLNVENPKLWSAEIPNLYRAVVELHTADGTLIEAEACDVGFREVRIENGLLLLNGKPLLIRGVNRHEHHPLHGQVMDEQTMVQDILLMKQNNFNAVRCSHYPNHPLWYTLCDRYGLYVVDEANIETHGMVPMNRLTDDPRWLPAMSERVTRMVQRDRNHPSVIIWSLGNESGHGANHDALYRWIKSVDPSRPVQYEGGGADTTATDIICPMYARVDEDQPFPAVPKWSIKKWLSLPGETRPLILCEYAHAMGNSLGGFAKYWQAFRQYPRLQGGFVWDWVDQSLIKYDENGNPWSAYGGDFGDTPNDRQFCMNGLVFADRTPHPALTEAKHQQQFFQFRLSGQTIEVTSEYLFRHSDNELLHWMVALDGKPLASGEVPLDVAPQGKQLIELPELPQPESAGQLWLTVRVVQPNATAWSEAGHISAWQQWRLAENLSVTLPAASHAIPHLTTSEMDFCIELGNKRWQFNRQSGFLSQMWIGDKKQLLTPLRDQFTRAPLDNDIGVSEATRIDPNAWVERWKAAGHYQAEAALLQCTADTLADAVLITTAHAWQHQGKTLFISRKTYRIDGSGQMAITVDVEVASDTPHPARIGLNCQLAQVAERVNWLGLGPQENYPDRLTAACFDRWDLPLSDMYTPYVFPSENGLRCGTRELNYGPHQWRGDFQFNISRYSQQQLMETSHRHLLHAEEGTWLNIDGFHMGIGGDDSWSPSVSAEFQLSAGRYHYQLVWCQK
Sequence of Intestinal-type alkaline phosphatase (Homo sapiens, UniProt P09923) (P09923 whole entry): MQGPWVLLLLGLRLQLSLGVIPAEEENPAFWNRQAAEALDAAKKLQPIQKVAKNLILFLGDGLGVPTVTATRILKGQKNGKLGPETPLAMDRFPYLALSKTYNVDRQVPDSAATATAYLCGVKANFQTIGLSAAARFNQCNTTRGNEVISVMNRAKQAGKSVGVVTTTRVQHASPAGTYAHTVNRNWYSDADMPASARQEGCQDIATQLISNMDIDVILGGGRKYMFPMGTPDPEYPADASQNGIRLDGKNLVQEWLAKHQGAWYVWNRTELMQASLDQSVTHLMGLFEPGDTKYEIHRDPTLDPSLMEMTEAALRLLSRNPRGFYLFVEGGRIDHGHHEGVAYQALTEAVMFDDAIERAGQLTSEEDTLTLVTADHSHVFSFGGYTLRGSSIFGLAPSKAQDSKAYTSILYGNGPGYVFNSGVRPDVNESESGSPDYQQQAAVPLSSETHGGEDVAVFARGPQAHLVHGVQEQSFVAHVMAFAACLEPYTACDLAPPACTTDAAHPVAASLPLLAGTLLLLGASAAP
T2 sequence (P41143 whole entry): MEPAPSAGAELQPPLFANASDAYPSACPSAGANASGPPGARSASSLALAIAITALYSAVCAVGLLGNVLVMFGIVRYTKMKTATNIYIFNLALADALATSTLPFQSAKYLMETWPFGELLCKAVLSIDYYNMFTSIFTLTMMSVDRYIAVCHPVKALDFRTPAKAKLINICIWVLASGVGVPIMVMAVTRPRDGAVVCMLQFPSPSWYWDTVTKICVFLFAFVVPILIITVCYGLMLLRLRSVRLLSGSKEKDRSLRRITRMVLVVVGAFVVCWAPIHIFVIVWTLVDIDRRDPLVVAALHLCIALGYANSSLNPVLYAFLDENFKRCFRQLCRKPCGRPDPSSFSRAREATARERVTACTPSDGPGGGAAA
Sequence of Intestinal-type alkaline phosphatase (Mus musculus, UniProt P24822) (P24822 whole entry): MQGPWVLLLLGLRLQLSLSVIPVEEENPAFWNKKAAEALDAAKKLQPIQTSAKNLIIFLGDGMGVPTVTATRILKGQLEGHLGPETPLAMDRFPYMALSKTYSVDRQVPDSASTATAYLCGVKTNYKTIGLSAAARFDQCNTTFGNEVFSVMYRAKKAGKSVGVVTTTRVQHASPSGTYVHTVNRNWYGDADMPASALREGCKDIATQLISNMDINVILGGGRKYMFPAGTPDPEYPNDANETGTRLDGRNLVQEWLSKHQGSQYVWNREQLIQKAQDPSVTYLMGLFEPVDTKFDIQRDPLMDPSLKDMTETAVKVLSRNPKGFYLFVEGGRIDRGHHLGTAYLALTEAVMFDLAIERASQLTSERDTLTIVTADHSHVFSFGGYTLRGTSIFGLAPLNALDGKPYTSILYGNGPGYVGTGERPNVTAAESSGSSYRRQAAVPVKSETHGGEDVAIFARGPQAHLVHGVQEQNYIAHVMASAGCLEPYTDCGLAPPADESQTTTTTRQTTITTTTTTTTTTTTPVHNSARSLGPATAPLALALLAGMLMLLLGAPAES
T1 sequence (P41145 whole entry): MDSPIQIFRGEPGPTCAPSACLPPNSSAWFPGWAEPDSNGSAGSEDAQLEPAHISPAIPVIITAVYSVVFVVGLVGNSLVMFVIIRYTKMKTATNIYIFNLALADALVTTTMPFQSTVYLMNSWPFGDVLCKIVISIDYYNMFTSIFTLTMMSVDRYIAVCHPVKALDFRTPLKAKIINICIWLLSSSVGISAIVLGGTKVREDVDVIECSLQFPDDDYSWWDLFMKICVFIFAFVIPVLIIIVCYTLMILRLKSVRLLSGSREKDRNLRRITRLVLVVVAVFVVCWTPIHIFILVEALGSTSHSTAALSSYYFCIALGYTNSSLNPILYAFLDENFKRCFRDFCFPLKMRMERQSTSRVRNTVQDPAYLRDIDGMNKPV
Sequence of Cytochrome P450 2C9 (P11712 whole entry): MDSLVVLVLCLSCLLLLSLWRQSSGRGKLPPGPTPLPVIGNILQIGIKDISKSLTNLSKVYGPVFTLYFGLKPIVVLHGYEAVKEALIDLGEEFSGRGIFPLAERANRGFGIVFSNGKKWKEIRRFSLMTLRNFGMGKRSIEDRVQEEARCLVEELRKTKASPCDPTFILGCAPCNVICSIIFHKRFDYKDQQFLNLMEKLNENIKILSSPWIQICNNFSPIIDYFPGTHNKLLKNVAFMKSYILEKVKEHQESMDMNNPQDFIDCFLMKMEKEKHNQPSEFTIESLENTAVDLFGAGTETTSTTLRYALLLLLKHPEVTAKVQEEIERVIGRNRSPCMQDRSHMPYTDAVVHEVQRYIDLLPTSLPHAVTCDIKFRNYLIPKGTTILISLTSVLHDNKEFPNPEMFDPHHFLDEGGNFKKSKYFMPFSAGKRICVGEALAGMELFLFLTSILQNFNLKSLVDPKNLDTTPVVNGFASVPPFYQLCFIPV
Sequence of Cytochrome P450 2C19 (P33261 whole entry): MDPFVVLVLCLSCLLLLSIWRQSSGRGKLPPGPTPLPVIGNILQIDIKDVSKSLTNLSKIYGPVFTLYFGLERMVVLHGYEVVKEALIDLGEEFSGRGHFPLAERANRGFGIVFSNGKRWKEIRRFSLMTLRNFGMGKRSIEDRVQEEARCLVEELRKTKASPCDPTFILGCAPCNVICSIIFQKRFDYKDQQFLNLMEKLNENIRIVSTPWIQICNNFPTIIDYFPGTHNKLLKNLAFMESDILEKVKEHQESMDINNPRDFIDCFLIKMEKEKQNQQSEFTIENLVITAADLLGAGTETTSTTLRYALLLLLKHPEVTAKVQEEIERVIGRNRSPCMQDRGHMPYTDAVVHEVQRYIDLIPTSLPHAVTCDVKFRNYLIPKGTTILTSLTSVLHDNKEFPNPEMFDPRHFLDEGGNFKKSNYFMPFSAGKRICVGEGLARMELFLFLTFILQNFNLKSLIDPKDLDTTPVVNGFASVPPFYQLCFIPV
Sequence of Nucleotide-binding oligomerization domain-containing protein 2 (Q9HC29 whole entry, the tested form may be a part): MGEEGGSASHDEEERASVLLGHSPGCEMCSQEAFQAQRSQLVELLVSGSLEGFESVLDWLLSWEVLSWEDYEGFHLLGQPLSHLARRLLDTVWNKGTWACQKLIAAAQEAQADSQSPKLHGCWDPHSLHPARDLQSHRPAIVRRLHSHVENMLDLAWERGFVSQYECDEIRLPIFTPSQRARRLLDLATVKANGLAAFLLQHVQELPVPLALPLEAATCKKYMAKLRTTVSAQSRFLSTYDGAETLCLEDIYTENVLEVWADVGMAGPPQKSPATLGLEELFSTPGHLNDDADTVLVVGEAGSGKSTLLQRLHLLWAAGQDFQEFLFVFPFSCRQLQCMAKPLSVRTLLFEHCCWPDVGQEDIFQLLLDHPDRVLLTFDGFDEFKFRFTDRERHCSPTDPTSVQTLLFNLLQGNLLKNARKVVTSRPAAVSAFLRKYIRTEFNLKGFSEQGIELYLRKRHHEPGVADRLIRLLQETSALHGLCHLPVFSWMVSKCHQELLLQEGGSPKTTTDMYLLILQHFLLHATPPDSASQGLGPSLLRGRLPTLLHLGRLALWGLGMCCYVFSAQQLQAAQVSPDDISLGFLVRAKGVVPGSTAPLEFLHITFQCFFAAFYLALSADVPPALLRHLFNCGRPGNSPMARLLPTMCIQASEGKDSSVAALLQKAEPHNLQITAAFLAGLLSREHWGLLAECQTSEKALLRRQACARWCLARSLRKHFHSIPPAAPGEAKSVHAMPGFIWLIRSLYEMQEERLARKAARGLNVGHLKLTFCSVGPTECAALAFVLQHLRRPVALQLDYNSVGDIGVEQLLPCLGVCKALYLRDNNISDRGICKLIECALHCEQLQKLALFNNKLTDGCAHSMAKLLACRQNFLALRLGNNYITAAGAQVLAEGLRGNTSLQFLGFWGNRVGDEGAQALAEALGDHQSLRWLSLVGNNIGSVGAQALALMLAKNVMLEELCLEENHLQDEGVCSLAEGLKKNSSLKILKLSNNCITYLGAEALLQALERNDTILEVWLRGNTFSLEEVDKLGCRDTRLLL

O=C(Nc1nccs1)c1sc2cc(Cl)ccc2c1Cl
EC50 [1]: 2.31 µM (active)
IC50 [2]: > 32 µM
IC50 [3]: > 32 µM (inactive)
IC50 [4]: > 66.6 µM (inactive)
EC50 [5]: > 31.5 µM (inactive)
EC50 [6]: > 32 µM (inactive)
EC50 [7]: > 32 µM (inactive)
EC50 [8]: 17.9 µM (active)
AC50 [9]: 0.891 µM (inconclusive)
IC50 [10]: 9.5 µM (active)
AC50 [11]: 0.631 µM (inconclusive)
IC50 [12]: > 66.6 µM (inactive)

O=C1c2ccccc2NC(c2ccc(-c3ccc(C(F)(F)F)cc3)o2)N1O (stereo not given)
IC50 [13]: > 119 µM (inactive)
IC50 [14]: > 119 µM (inactive)
AC50 [15]: 7.23 µM (active)

COc1cc(/C=C/[N+](=O)[O-])ccc1OC(=O)c1cc2ccccc2oc1=O
IC50 [16]: 10.4 µM (active)
IC50 [17]: > 100 µM (inactive)
IC50 [18]: > 100 µM (inactive)
EC50 [19]: > 40 µM (inactive)
IC50 [20]: 13 µM (active)
AC50 [15]: 1.01 µM (active)

O=C(NN1C(=O)/C(=C/c2ccc(O)cc2)SC1=S)c1ccccc1O
IC50 [17]: > 100 µM (inactive)
IC50 [18]: > 100 µM (inactive)
AC50 [21]: 61.9 µM (active)
IC50 [20]: 4.68 µM (active)

O=[N+]([O-])c1cccnc1S(=O)(=O)c1ccccc1
EC50 [22]: 12.4 µM (active)
EC50 [1]: 3.71 µM (active)
EC50 [23]: 2.63 µM (active)
EC50 [24]: > 20 µM (inactive)
AC50 [25]: 4.79 µM (active)
EC50 [26]: 4.24 µM (inconclusive)
IC50 [27]: 4.56 µM (active)
EC50 [28]: 11.9 µM (active)
IC50 [29]: 11.6 µM (active)
EC50 [8]: 4.16 µM (active)
AC50 [30]: 51 µM (active)
IC50 [31]: > 20 µM (inactive)
AC50 [32]: 5.79 µM (active)
AC50 [33]: 24.2 µM (active)
IC50 [34]: 2.38 µM (active)
